In this experiment the test system is 885512-296-R-J2-PDC complex spheroid growth, % test/control. The experiment in a line: Anticancer human tumor 885512-296-R-J2-PDC patient-derived breast carcinoma cell line growth inhibition [Asc]. Conditions: for viability, T/C: stronger effect = lower value. The method, boiled down:
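Spheroid model: tumor line + HUVEC + hMSC. Single agents and combinations; top conc. at/near clinical Cmax (10 microM if undetermined), half-log dilutions. DMSO stocks at 800-fold test concentration.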

Setting [1] is: curve of first compound, second compound 0.1 µM.
Where [2] appears, read: curve of first compound, second compound 0.316 µM.
[3] abbreviates: curve of first compound, second compound 1 µM.
Where [4] appears, read: curve of first compound, second compound 3.16 µM.
Where [5] appears, read: curve of first compound, second compound 10 µM.

The structures appear in SMILES notation. Several values for one entry are separate records, joined by “and”; a condition that tells them apart may be missing. Identical values can stand only once. Bounds are passed on as bounds.
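Further: spheroids exposed to compounds for seven days.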
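Wherever viability, T/C is given: 100% = DMSO vehicle control wells.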

For `O=C(c1ccc(F)c(F)c1Nc1ccc(I)cc1F)N1CC(O)([C@@H]2CCCCN2)C1`, the viability, T/C (compound 0.00316 µM) was 94% and 88.7% and 94.3%; the viability, T/C (compound 0.01 µM) is 89.3% and 77.1% and 88.9%; the viability, T/C (compound 0.0316 µM) was 73.9% and 62.5% and 68.7%; the viability, T/C (compound 0.1 µM) was 69.7% and 54.8% and 47.7%; the viability, T/C (compound 0.316 µM) is 45.6% and 36.5% and 35.7%; the viability, T/C (compound 1 µM) is 18.4% and 15.1% and 17.1%. Also, where the note is “curve of compound”, the IC50 was 255 nM and 113 nM and 102 nM.
Turning to `C=CC(=O)N1CCN(c2nc(=O)n(-c3c(C)ccnc3C(C)C)c3nc(-c4c(O)cccc4F)c(F)cc23)C(C)C1` (configuration not stated) + Cc1c(S(C)(=O)=O)c(-c2cc(F)cc(N3CCN(c4ccc(NS(=O)(=O)c5ccc(NC(CCN6CCC(C(=O)OCCCP(=O)(O)O)CC6)CSc6ccccc6)c(S(=O)(=O)C(F)(F)F)c5)cc4)CC3)c2)c(-c2ccc(Cl)cc2)n1C(C)C, the IC50 runs as follows: under setting [1], more than 10000 nM; under setting [2], more than 10000 nM; under setting [3], more than 10000 nM; under setting [4], more than 10000 nM; under setting [5], more than 10000 nM. The viability, T/C reads like this: (second compound 0.1 µM, first compound 0.0316 µM) 85.3%; (second compound 0.1 µM, first compound 0.1 µM) 80.7%; (second compound 0.1 µM, first compound 0.316 µM) 92.2%; (second compound 0.1 µM, first compound 1 µM) 83.6%; (second compound 0.1 µM, first compound 3.16 µM) 87.6%; (second compound 0.1 µM, first compound 10 µM) 55.8%. Also, the viability, T/C by setting is: (second compound 0.316 µM, first compound 0.0316 µM) 94.3%; (second compound 0.316 µM, first compound 0.1 µM) 87.2%; (second compound 0.316 µM, first compound 0.316 µM) 86.8%; (second compound 0.316 µM, first compound 1 µM) 81.2%; (second compound 0.316 µM, first compound 3.16 µM) 101%; (second compound 0.316 µM, first compound 10 µM) 74.7%. Also, the viability, T/C (second compound 1 µM, first compound 0.0316 µM) was 80.6%; the viability, T/C (second compound 1 µM, first compound 0.1 µM) is 73.5%; the viability, T/C (second compound 1 µM, first compound 0.316 µM) is 93.3%; the viability, T/C (second compound 1 µM, first compound 1 µM) is 104%; the viability, T/C (second compound 1 µM, first compound 3.16 µM) is 85.7%; the viability, T/C (second compound 1 µM, first compound 10 µM) is 62%. Besides, the viability, T/C runs as follows: (second compound 3.16 µM, first compound 0.0316 µM) 98.7%; (second compound 3.16 µM, first compound 0.1 µM) 90.3%; (second compound 3.16 µM, first compound 0.316 µM) 109%; (second compound 3.16 µM, first compound 1 µM) 106%; (second compound 3.16 µM, first compound 3.16 µM) 90.2%; (second compound 3.16 µM, first compound 10 µM) 68.3%. Further, the viability, T/C is 119% (second compound 10 µM, first compound 0.0316 µM); 117% (second compound 10 µM, first compound 0.1 µM); 114% (second compound 10 µM, first compound 0.316 µM); 114% (second compound 10 µM, first compound 1 µM); 98.8% (second compound 10 µM, first compound 3.16 µM); 71.6% (second compound 10 µM, first compound 10 µM).
As for `Cc1c(S(C)(=O)=O)c(-c2cc(F)cc(N3CCN(c4ccc(NS(=O)(=O)c5ccc(NC(CCN6CCC(C(=O)OCCCP(=O)(O)O)CC6)CSc6ccccc6)c(S(=O)(=O)C(F)(F)F)c5)cc4)CC3)c2)c(-c2ccc(Cl)cc2)n1C(C)C` (configuration not stated), the viability, T/C was 84.8% [middle of 14 runs] (compound 0.1 µM), 86.5% [middle of 14 runs] (compound 0.316 µM), 88.8% [middle of 14 runs] (compound 1 µM) and 114% [middle of 14 runs] (compound 10 µM). Also, for the setting “compound alone, run of 09/27/2022”, the IC50 was more than 10000 nM.
As for `CCN1C(C(=O)NC23CCC(C(=O)O)(CC2)CC3)C(c2cccc(Cl)c2F)C2(C(=O)Nc3cc(Cl)ccc32)C12CCCCC2` (configuration not stated) + Cc1c(S(C)(=O)=O)c(-c2cc(F)cc(N3CCN(c4ccc(NS(=O)(=O)c5ccc(NC(CCN6CCC(C(=O)OCCCP(=O)(O)O)CC6)CSc6ccccc6)c(S(=O)(=O)C(F)(F)F)c5)cc4)CC3)c2)c(-c2ccc(Cl)cc2)n1C(C)C, the half-maximal inhibitory concentration (IC50) is 2460 nM under setting [1]; 1820 nM under setting [2]; 2370 nM under setting [3]; more than 3000 nM under setting [4]; more than 3000 nM under setting [5]. Moreover, the viability, T/C runs as follows: (second compound 0.1 µM, first compound 0.00949 µM) 90.8%; (second compound 0.1 µM, first compound 0.03 µM) 96.3%; (second compound 0.1 µM, first compound 0.0949 µM) 99.4%; (second compound 0.1 µM, first compound 0.3 µM) 72.8%; (second compound 0.1 µM, first compound 0.949 µM) 73.8%; (second compound 0.1 µM, first compound 3 µM) 45.1%. For the same compound, the viability, T/C is, setting by setting: (second compound 0.316 µM, first compound 0.00949 µM) 86.7%; (second compound 0.316 µM, first compound 0.03 µM) 101%; (second compound 0.316 µM, first compound 0.0949 µM) 99.6%; (second compound 0.316 µM, first compound 0.3 µM) 80.8%; (second compound 0.316 µM, first compound 0.949 µM) 64.4%; (second compound 0.316 µM, first compound 3 µM) 39.8%. Besides, the viability, T/C was 103% (second compound 1 µM, first compound 0.00949 µM); 79.3% (second compound 1 µM, first compound 0.03 µM); 85% (second compound 1 µM, first compound 0.0949 µM); 71.9% (second compound 1 µM, first compound 0.3 µM); 67.1% (second compound 1 µM, first compound 0.949 µM); 42% (second compound 1 µM, first compound 3 µM). Besides, the viability, T/C (second compound 3.16 µM, first compound 0.00949 µM) is 109%; the viability, T/C (second compound 3.16 µM, first compound 0.03 µM) was 100%; the viability, T/C (second compound 3.16 µM, first compound 0.0949 µM) was 98.6%; the viability, T/C (second compound 3.16 µM, first compound 0.3 µM) was 95.4%; the viability, T/C (second compound 3.16 µM, first compound 0.949 µM) was 78%; the viability, T/C (second compound 3.16 µM, first compound 3 µM) is 52.4%. In addition, the viability, T/C is, setting by setting: (second compound 10 µM, first compound 0.00949 µM) 129%; (second compound 10 µM, first compound 0.03 µM) 101%; (second compound 10 µM, first compound 0.0949 µM) 119%; (second compound 10 µM, first compound 0.3 µM) 124%; (second compound 10 µM, first compound 0.949 µM) 112%; (second compound 10 µM, first compound 3 µM) 79.6%.

The values above are taken from PubChem BioAssay AID1963447 (Molecular Pharmacology Branch, DTP, NCI, 2024).
